# Measured values published in US6825193B2, “Citric acid salt of a therapeutic compound and pharmaceutical compositions thereof” (Pfizer Inc., priority 2001, dated 2004).
# “Also recorded” adds a separate entry of the source. Structures can show the parent of a compound that is named as a salt.
# What was measured:
# Assay type in all cases: physicochemical
# [1] = Aqueous solubility and native pH in aqueous solution
# [2] = Hygroscopicity on exposure to 90% relative humidity in a moisture chamber
# [3] = Solid state stability (light, elevated temperature, high humidity challenges); settings: elevated temperatures
# [4] = Compatibility with drug product formulation excipients
structure (smiles),measurement,setting,value
"CN1CCN(c2ccccc2/C=C2\SCCN(c3ccc(Cl)c(Cl)c3)C2=O)CC1 [citrate salt, 4-(3,4-dichlorophenyl)-2-[2-(4-methylpiperazin-1-yl)-benzylidene]-thiomorpholin-3-one]",aqueous solubility (in words),[1],high aqueous solubility
same,native pH in aqueous solution,[1]; aqueous solution at solubility 1.3 mg/ml,3.37
same,solubility,"[1]; water, native pH 3.37",1300 µg/mL
same,hygroscopicity (in words),[2],only slightly hygroscopic
same,hygroscopicity,[2]; at 90% relative humidity,approximately 1.27%
same,hygroscopicity,[2]; on exposure to 90% relative humidity in a moisture chamber,approximately 1.27 % wt/wt
same,solid state stability (in words),[3],excellent solid state stability; also recorded: superior to previously known salts
same,inertness / compatibility towards common formulation excipients (in words),[4],relative inertness towards common excipients; also recorded: superior to previously known salts
